How the values were obtained:
[1] = Relative bioavailability of amorphous drug and HME dispersions in rats (Example 13); type: in vivo, rat; conditions: oral gavage 20 mg/kg; for Mean AUC0-inf: rat plasma; for Bioavailability (Mean AUC0-inf/IV Mean AUC0-inf): rat
Description: Six groups of jugular vein-cannulated CD® rats (n=6 per group) were dosed six enzalutamide formulations by oral gavage, at a dose of 20 mg/kg, in a volume of 2 ml/kg. with the exception of one group which was dosed intravenously via tail vein. Blood samples were obtained at 1, 3, 6, 12, 24, 36, 48, 60, and 72 hr post-dose.
The analytes, enzalutamide, MDPC0002, and MDPC0001 and internal standards (IS), N-^13CD3-enzalutamide, MDPC0002-^13CD3. and MDPC0001-^13CD3 were extracted from […] of rat plasma by a liquid-liquid extraction procedure. Internal standard working solution (25.0 µL) was added to all wells except the matrix blank. A 25.0 µL-volume of acetonitrile was added all matrix blank samples. After adding 200 µL of 5% sodium bicarbonate in water buffer solution, the plate was vortexed for approximately 10 seconds. A Tomtec Quadra 96-well pipettor was used to add 1.050 mL of methyl tert-butyl ether (MTBE) to all wells, mixed, and approximately 1.00 mL of the organic layer was transferred to a clean 96-well plate. The samples were evaporated under heated nitrogen and reconstituted with 250 µL of 0.1% formic acid in methanol/water (40:60, v/v). The plate was covered and gently vortexed for approximately 10 seconds. The extracts were chromatographed under reverse phase conditions on an ACE 5 C18 HPLC 5 µm, 2.1 x 30 mm column. The compounds were detected and quantified by tandem mass spectrometry in positive ion mode on an MDS Sciex API 3000 equipped with a Turbo IONSPRAY® probe. Calibration curves were obtained by performing a linear regression (weighted ⅟x^2) of the data from the calibration standards.
Plasma enzalutamide concentration vs. time curves were prepared, and values for the following parameters were determined. Cmax is the highest enzalutamide concentration observed for each rat. Tmax is the time that Cmax is first achieved. AUC0-72 is the area under the plasma enzalutamide concentration vs. time plot out to 72 hr post-dosing.

[2] = Crystallinity by PXRD (and DSC); type: physicochemical; conditions: after spray-drying
[3] = Microcentrifuge dissolution before and after suspension for 2 hr in aqueous 0.5% methylcellulose; type: physicochemical
Description: Drugs and drug formulations are sometimes dosed as aqueous suspensions, particularly for pediatric patients. The ability of various enzalutamide SDDs to retain their ability to maintain drug supersaturation in vitro was assessed by using the microcentrifuge dissolution test to measure drug dissolution after suspension in 0.5% methylcellulose in water for 2 hours. Methylcellulose is a standard viscosifying suspending agent which is used to maintain drug particles in suspension in oral suspension dosage forms. The table below presents in vitro dissolution performance before and after suspension in 0.5% methylcellulose.

[4] = Microcentrifuge dissolution test in Model Fasted Duodenal Solution; type: physicochemical; conditions: for Enzalutamide Concentration / AUC90 (area under the curve at 90 minutes) / Cmax,90 (maximum drug concentration through 90 minutes): MFDS pH 6.5, dose 200 µg/ml; for AUC90 (area under the curve at 90 minutes) / Cmax,90 (maximum drug concentration through 90 minutes): Table 4.2; for Average enzalutamide concentration: Table 9.1
Text: The in vitro dissolution test to evaluate enhanced drug concentration in aqueous solution can be conducted by (1) adding with agitation a sufficient quantity of control composition, that is, the crystalline enzalutamide alone, to the in vitro test medium, typically MFD or PBS solution, to determine the maximum concentration of the enzalutamide achieved under the conditions of the test: (2) adding with agitation a sufficient quantity of test composition (e.g., the enzalutamide and polymer) in an equivalent test medium, such that if all the enzalutamide dissolved, the theoretical concentration of enzalutamide would exceed the observed maximum concentration of enzalutamide by a factor of about 20; and (3) comparing the measured MDC and/or aqueous concentration versus time AUC90 of the test composition in the test medium with the maximum concentration, and/or the aqueous concentration versus time AUC90 of the control composition. In conducting such a dissolution test, the amount of test composition or control composition used is an amount such that if all of the enzalutamide dissolved, the test enzalutamide concentration would be at least about 20-fold that of the control enzalutamide concentration.
The concentration of dissolved enzalutamide is typically measured as a function of time by sampling the test medium and plotting enzalutamide concentration in the test medium vs. time so that the MDC can be ascertained. The MDC is taken to be the maximum value of dissolved enzalutamide measured over the duration of the test. The enzalutamide concentration versus time AUC90 is calculated by integrating the concentration versus time curve over any 90-minute time period between the time of introduction of the composition into the aqueous use environment (time equals zero) and 270 minutes following introduction to the use environment (time equals 270 minutes). Typically, when the composition reaches its MDC rapidly, in less than about 30 minutes, the time interval used to calculate AUC90 is from time equals zero to time equals 90 minutes. However, if the AUC90 over any 90-minute time period described above of a composition meets the criteria of compositions described herein, then the composition is included in compositions of this disclosure. The time period 270 min is chosen because of its physiological relevance. Drug absorption in mammals generally occurs in the small intestine, and the small intestinal transit time in humans is approximately 4.5 hr, or 270 min.
To avoid large enzalutamide particulates which would give an erroneous determination, the test solution is either filtered or centrifuged. “Dissolved enzalutamide” is typically taken as that material that either passes a 0.45 micron syringe filter or, alternatively, the material that remains in the supernatant following centrifugation. Filtration can be conducted using a 13 mm, 0.45 micron polyvinylidine difluoride syringe filter, such as the filter sold by Scientific Resources under the trademark TITAN™. Centrifugation is typically carried out in a polypropylene microcentrifuge tube by centrifuging at 13.000 G for 60 seconds. Other similar filtration or centrifugation methods can be employed and useful results obtained. For example, using other types of microfilters may yield values somewhat higher or lower (+/- 10-40%) than that obtained with the filter specified above but will still allow identification of dispersions. It is recognized that this definition of “dissolved enzalutamide” encompasses not only monomeric solvated enzalutamide molecules but also a wide range of species such as polymer/enzalutamide assemblies that have submicron dimensions such as enzalutamide aggregates, aggregates of mixtures of polymer and enzalutamide, micelles, polymeric micelles, colloidal particles, polymer/enzalutamide complexes, and other such enzalutamide-containing species that are present in the filtrate or supernatant in the specified dissolution test. […]

[5] = listed as Spray-dried amorphous drug
[6] = 0 hr, before suspension in 0.5% methylcellulose
[7] = after suspension for 2 hr in aqueous 0.5% methylcellulose
[8] = listed as Amorphous (spray-dried) enzalutamide

CNC(=O)c1ccc(N2C(=S)N(c3ccc(C#N)c(C(F)(F)F)c3)C(=O)C2(C)C)cc1F [Amorphous enzalutamide, 4-{3-[4-cyano-3-(trifluoromethyl)phenyl]-5,5-dimethyl-4-oxo-2-sulfanylideneimidazolidin-1-yl}-2-fluoro-N-methylbenzamide]
Mean AUC0-inf [1, 5]: 132 µg·h/mL | Bioavailability (Mean AUC0-inf/IV Mean AUC0-inf) [1, 5]: 57.1% | crystallinity by PXRD [2]: completely amorphous | AUC90 [3, 6]: 8,900 min·mcg/ml | Cmax 90 [3, 6]: 110 µg/mL | AUC90 [3, 7]: 8,800 min·mcg/ml | AUC90% of 0 Hr Value [3, 7]: 99% | Cmax 90 [3, 7]: 100 µg/mL | Enzalutamide Concentration ([4]; 0 min): 0.0 µg/mL | Enzalutamide Concentration ([4]; 4 min, listed as Amorphous (spray-dried) enzalutamide): 61 µg/mL | Enzalutamide Concentration ([4]; 10 min, listed as Amorphous (spray-dried) enzalutamide): 100 µg/mL | Enzalutamide Concentration ([4]; 20 min, listed as Amorphous (spray-dried) enzalutamide): 100 µg/mL | Enzalutamide Concentration ([4]; 40 min, listed as Amorphous (spray-dried) enzalutamide): 110 µg/mL | Enzalutamide Concentration ([4]; 90 min, listed as Amorphous (spray-dried) enzalutamide): 120 µg/mL | Enzalutamide Concentration ([4]; 1200 min, listed as Amorphous (spray-dried) enzalutamide): 30 µg/mL | AUC90 (area under the curve at 90 minutes) [4, 8]: 9,500 min*µg/mL | Cmax,90 (maximum drug concentration through 90 minutes) [4, 8]: 120 µg/mL

CNC(=O)c1ccc(N2C(=S)N(c3ccc(C#N)c(C(F)(F)F)c3)C(=O)C2(C)C)cc1F [Control 1, 4-{3-[4-cyano-3-(trifluoromethyl)phenyl]-5,5-dimethyl-4-oxo-2-sulfanylideneimidazolidin-1-yl}-2-fluoro-N-methylbenzamide]
Mean AUC0-inf [1]: 62.6 µg·h/mL | Bioavailability (Mean AUC0-inf/IV Mean AUC0-inf) [1]: 27.1% | Enzalutamide Concentration ([4]; 4 min): 1 µg/mL | Enzalutamide Concentration ([4]; 10 min): 3 µg/mL | Enzalutamide Concentration ([4]; 20 min): 5 µg/mL | Enzalutamide Concentration ([4]; 40 min): 6 µg/mL | Enzalutamide Concentration ([4]; 90 min): 7 µg/mL | Enzalutamide Concentration ([4]; 1200 min): 9 µg/mL | AUC90 (area under the curve at 90 minutes) [4]: 500 µg·min/mL | Cmax,90 (maximum drug concentration through 90 minutes) [4]: 7 µg/mL | Average enzalutamide concentration ([4]; 0 min): 0.32 µg/mL | Average enzalutamide concentration ([4]; 4 min): 5.23 µg/mL | Average enzalutamide concentration ([4]; 10 min): 8.04 µg/mL | Average enzalutamide concentration ([4]; 20 min): 7.69 µg/mL | Average enzalutamide concentration ([4]; 40 min): 8.65 µg/mL | Average enzalutamide concentration ([4]; 90 min): 9.14 µg/mL | Average enzalutamide concentration ([4]; 1200 min): 12.12 µg/mL | AUC90 min ([4]; Table 9.2): 740 µg·min/mL | Cmax,90 min ([4]; Table 9.2): 10 µg/mL
